Experimental data published in PubChem BioAssay (NCI).
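Tested at 5 concentrations; 48 h exposure; 96-well plates; endpoints linearly interpolated, else capped at highest concentration. TGI marks complete inhibition of growth.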

Key:
Assay in all cases: NCI-60 cell line screen, 48 h
[1] = system: 786-0 renal
[2] = system: A498 renal
[3] = system: A549 NSCLC
[4] = system: ACHN renal
[5] = system: BT-549 breast
[6] = system: CAKI-1 renal
[7] = system: CCRF-CEM leukemia
[8] = system: COLO 205 colon
[9] = system: DU-145 prostate
[10] = system: EKVX NSCLC
[11] = system: HCC-2998 colon
[12] = system: HCT-116 colon
[13] = system: HCT-15 colon
[14] = system: HL-60(TB) leukemia
[15] = system: HOP-62 NSCLC
[16] = system: HOP-92 NSCLC
[17] = system: HS 578T breast
[18] = system: HT29 colon
[19] = system: IGROV1 ovarian
[20] = system: K-562 leukemia
[21] = system: KM12 colon
[22] = system: LOX IMVI melanoma
[23] = system: M14 melanoma
[24] = system: MALME-3M melanoma
[25] = system: MCF7 breast
[26] = system: MDA-MB-231 breast
[27] = system: MDA-MB-435
[28] = system: MDA-N
[29] = system: MOLT-4 leukemia
[30] = system: NCI-H226 lung
[31] = system: NCI-H23 lung
[32] = system: NCI-H460 lung
[33] = system: NCI-H522 lung
[34] = system: NCI/ADR-RES ovarian
[35] = system: OVCAR-3 ovarian
[36] = system: OVCAR-4 ovarian
[37] = system: OVCAR-5 ovarian
[38] = system: OVCAR-8 ovarian
[39] = system: PC-3 prostate
[40] = system: RPMI-8226 leukemia
[41] = system: RXF 393 renal
[42] = system: SF-268 CNS
[43] = system: SF-295 CNS
[44] = system: SF-539 CNS
[45] = system: SK-MEL-2 melanoma
[46] = system: SK-MEL-28 melanoma
[47] = system: SK-MEL-5 melanoma
[48] = system: SK-OV-3 ovarian
[49] = system: SN12C renal
[50] = system: SNB-19 CNS
[51] = system: SNB-75 CNS
[52] = system: SW-620 colon
[53] = system: T-47D breast
[54] = system: TK-10 renal
[55] = system: U251 CNS
[56] = system: UACC-257 melanoma
[57] = system: UACC-62 melanoma
[58] = system: UO-31 renal

Structure (SMILES): NCC1CCN(c2nc3ccccc3c3c2CCCC3)CC1
- TGI [1]: 12.3 µM
- TGI [2]: 25.7 µM
- TGI [3]: 24.9 µM
- TGI [4]: 25.3 µM
- TGI [5]: 28 µM
- TGI [6]: 21.4 µM
- TGI [7]: 14.2 µM
- TGI [8]: 3.13 µM
- TGI [9]: 25.9 µM
- TGI [10]: 27.7 µM
- TGI [11]: 3.46 µM
- TGI [12]: 9.91 µM
- TGI [13]: 14.9 µM
- TGI [14]: 8.13 µM
- TGI [15]: 32.1 µM
- TGI [16]: 24.1 µM
- TGI [17]: > 100 µM
- TGI [18]: 6.22 µM
- TGI [19]: 24.5 µM
- TGI [20]: 8.07 µM
- TGI [21]: 15.9 µM
- TGI [22]: 16 µM
- TGI [23]: 3.71 µM
- TGI [24]: 26 µM
- TGI [25]: 15 µM
- TGI [26]: 17.2 µM
- TGI [27]: 7.13 µM
- TGI [28]: 7.92 µM
- TGI [29]: 11.7 µM
- TGI [30]: 34.1 µM
- TGI [31]: 30.1 µM
- TGI [32]: 17.6 µM
- TGI [33]: 19.8 µM
- TGI [34]: 32.3 µM
- TGI [35]: 24.9 µM
- TGI [36]: 23.2 µM
- TGI [37]: 24.7 µM
- TGI [38]: 42.9 µM
- TGI [39]: 22.5 µM
- TGI [40]: 6.3 µM
- TGI [41]: 11.7 µM
- TGI [42]: 22.7 µM
- TGI [43]: 26.7 µM
- TGI [44]: 11.3 µM
- TGI [45]: 11.3 µM
- TGI [46]: 12 µM
- TGI [47]: 7.62 µM
- TGI [48]: 29.6 µM
- TGI [49]: 22.4 µM
- TGI [50]: 24.3 µM
- TGI [51]: 22.2 µM
- TGI [52]: 9.34 µM
- TGI [53]: 8.81 µM
- TGI [54]: 25.9 µM
- TGI [55]: 16.2 µM
- TGI [56]: 6.84 µM
- TGI [57]: 4.96 µM
- TGI [58]: 11.9 µM

Structure (SMILES): COC(=O)C1C(C(=O)OC)N(Cc2ccccc2)C(=O)N1Cc1ccccc1 (configuration not stated)
- TGI [3]: > 100 µM
- TGI [4]: > 100 µM
- TGI [5]: > 100 µM
- TGI [6]: > 100 µM
- TGI [7]: > 100 µM
- TGI [8]: > 100 µM
- TGI [9]: > 100 µM
- TGI [10]: > 100 µM
- TGI [11]: > 100 µM
- TGI [12]: > 100 µM
- TGI [14]: > 100 µM
- TGI [15]: > 100 µM
- TGI [16]: > 100 µM
- TGI [17]: > 100 µM
- TGI [18]: > 100 µM
- TGI [19]: > 100 µM
- TGI [20]: > 100 µM
- TGI [21]: > 100 µM
- TGI [22]: > 100 µM
- TGI [23]: > 100 µM
- TGI [24]: > 100 µM
- TGI [25]: > 100 µM
- TGI [27]: > 100 µM
- TGI [28]: > 100 µM
- TGI [29]: > 100 µM
- TGI [30]: > 100 µM
- TGI [31]: > 100 µM
- TGI [32]: > 100 µM
- TGI [33]: 96.3 µM
- TGI [34]: > 100 µM
- TGI [35]: > 100 µM
- TGI [36]: > 100 µM
- TGI [37]: > 100 µM
- TGI [38]: > 100 µM
- TGI [39]: > 100 µM
- TGI [40]: > 100 µM
- TGI [41]: > 100 µM
- TGI [42]: > 100 µM
- TGI [43]: > 100 µM
- TGI [44]: > 100 µM
- TGI [45]: > 100 µM
- TGI [46]: > 100 µM
- TGI [47]: > 100 µM
- TGI [48]: > 100 µM
- TGI [49]: > 100 µM
- TGI [50]: > 100 µM
- TGI [51]: > 100 µM
- TGI [52]: > 100 µM
- TGI [53]: > 100 µM
- TGI [54]: > 100 µM
- TGI [55]: > 100 µM
- TGI [56]: > 100 µM
- TGI [57]: > 100 µM
- TGI [58]: > 100 µM
